Experimental data from DBAASP.
≈ marks a conversion by molar mass, not a printed value. Where “and” joins values, the source holds several entries; their conditions need not be identical. Equal entries are not always repeated.

What was measured:
Assay in all cases: ≥ marks a high value that may be exact or a test limit, other limits are often not marked, values filed in µg/mL are converted to µM
[1] = test system: Staphylococcus aureus CMCC 26003
[2] = test system: Escherichia coli CMCC 44102
[3] = test system: Bacillus subtilis CMCC 63501
[4] = test system: Pseudomonas aeruginosa CMCC 10104
[5] = test system: Listeria monocytogenes ATCC 19115
[6] = test system: Escherichia coli W160-37
[7] = test system: Bacillus subtilis
[8] = test system: Staphylococcus aureus 8530
[9] = test system: Pseudomonas putida NCIM 2102
[10] = test system: Rhizopus stolonifer CECT 2344
[11] = test system: Escherichia coli DH5alpha
[12] = test system: Aspergillus niger CECT 2694
[13] = test system: Penicillium digitatum PHI-26
[14] = test system: Penicillium expansum EPS 26
[15] = test system: Xanthomonas vesicatoria 2133-2
[16] = test system: Erwinia amylovora PMV 6076
[17] = test system: Pseudomonas syringae EPS 94
[18] = test system: Fusarium oxysporum f. sp. lycopersici ATCC 201829
[19] = test system: Saccharomyces cerevisiae FY1679
[20] = test system: Salmonella typhimurium DA22427
[21] = test system: Salmonella typhimurium DA6192
[22] = test system: Bacillus subtilis ATCC 6633
[23] = test system: Salmonella typhimurium DA23899
[24] = test system: Pseudomonas aeruginosa ATCC 27853
[25] = test system: Micrococcus luteus NCIMB 13267
[26] = test system: Escherichia coli K-12
[27] = test system: Staphylococcus aureus ATCC 6538
[28] = test system: Candida albicans NCTC 1467
[29] = test system: Staphylococcus aureus ATCC 12493
[30] = test system: Escherichia coli
[31] = test system: Candida albicans ATCC 10231
[32] = test system: Klebsiella pneumoniae ATCC 700603
[33] = test system: Escherichia coli NCTC 10418
[34] = test system: Staphylococcus aureus NCTC 10788
[35] = test system: Escherichia coli ATCC 25922
[36] = test system: Enterococcus faecalis NCTC 12697
[37] = test system: Bacillus subtilis ATCC 23857
[38] = test system: Enterococcus faecalis ATCC 29212
[39] = test system: Salmonella enterica subsp. enterica serovar Enteritidis ATCC 13076
[40] = test system: Bacillus cereus ATCC 11778
[41] = test system: Listeria monocytogenes ATCC 15313
[42] = test system: Staphylococcus aureus ATCC 25923
[43] = test system: Candida albicans MDM8
[44] = test system: Micrococcus luteus A270
[45] = test system: Escherichia coli SBS 363

CC[C@H](C)[C@H](NC(=O)[C@H](CCCN=C(N)N)NC(=O)[C@H](CCCN=C(N)N)NC(=O)[C@H](Cc1c[nH]c2ccccc12)NC(=O)[C@@H](N)Cc1ccccc1)C(=O)N[C@@H](CCCN=C(N)N)C(=O)N[C@H](C(=O)N[C@H](C(=O)N1CCC[C@H]1C(=O)N[C@H](C(=O)N[C@H](C(=O)N[C@@H](CC(N)=O)C(=O)N1CCC[C@H]1C(=O)N[C@@H](Cc1c[nH]c2ccccc12)C(=O)N[C@@H](Cc1ccccc1)C(=O)N[C@@H](CC(C)C)C(=O)N[C@@H](CCC(N)=O)C(=O)N[C@@H](CCC(N)=O)C(=O)N[C@H](C(N)=O)[C@@H](C)O)C(C)C)C(C)C)[C@@H](C)O)C(C)C [FWRRIRVTPVVNPWFLQQT] was tested, and the MIC [1] was 13.1 µM (≈ 32 µg/mL), the MIC [2] was at least 105 µM and the MIC [3] was 26.2 µM (≈ 64 µg/mL). It also gave an MIC [4] of at least 105 µM and an MIC [5] of 13.1 µM (≈ 32 µg/mL).
For CC[C@H](C)[C@H](NC(=O)[C@H](CC(C)C)NC(=O)[C@H](C)NC(=O)[C@@H]1CCCN1C(=O)[C@H](CC(C)C)NC(=O)CN)C(=O)N[C@@H](CO)C(=O)N[C@@H](Cc1c[nH]c2ccccc12)C(=O)N[C@H](C(=O)N[C@@H](CCCCN)C(=O)N[C@@H](CCCN=C(N)N)C(=O)N[C@@H](CCCCN)C(=O)N[C@@H](CCCN=C(N)N)C(=O)N[C@@H](CCC(N)=O)C(=O)N[C@@H](CCC(N)=O)C(=O)NCC(N)=O)[C@@H](C)CC [GLPALISWIKRKRQQG], the MIC [6] was 21.4 µM (≈ 39.7 µg/mL), the MIC [7] was 10.5 µM (≈ 19.4 µg/mL) and the MIC [8] was 16 µM (≈ 29.6 µg/mL). The MIC [9] was at least 108 µM.
Compound CC[C@H](C)[C@H](NC(=O)[C@H](CCCCN)NC(=O)[C@H](CCCCN)NC(=O)[C@H](Cc1ccccc1)NC(=O)[C@H](CC(C)C)NC(=O)[C@H](CCCCN)NC(=O)[C@@H](N)CCCCN)C(=O)N[C@@H](CC(C)C)C(=O)N[C@@H](CCCCN)C(=O)N[C@H](C(=O)N[C@@H](CC(C)C)C(N)=O)C(C)C [KKLFKKILKVL] has an MIC [10] of 8.66 µM (≈ 11.8 µg/mL), an MIC [11] of 4 µM (≈ 5.43 µg/mL) and an MIC [12] of 6.12 µM (≈ 8.31 µg/mL). It also gave an MIC [13] of 4 µM (≈ 5.43 µg/mL), an MIC [14] of 13.7 µM (≈ 18.6 µg/mL) and an MIC [15] of 13.4 µM (≈ 18.2 µg/mL). It also gave an MIC [16] of 5.92 µM (≈ 8.03 µg/mL), an MIC [17] of 3.16 µM (≈ 4.29 µg/mL) and an MIC [18] of 0.849 µM (≈ 1.15 µg/mL). It also gave an MIC [19] of 16 µM (≈ 21.7 µg/mL).
Compound CC[C@H](C)[C@H](NC(=O)CNC(=O)[C@H](CC(N)=O)NC(=O)[C@H](CCCN=C(N)N)NC(=O)[C@@H](NC(=O)[C@H](CC(N)=O)NC(=O)[C@H](CCCN=C(N)N)NC(=O)CNC(=O)[C@H](CCSC)NC(=O)[C@H](CCCCN)NC(=O)[C@H](CCC(=O)O)NC(=O)[C@@H](NC(=O)[C@H](CCCCN)NC(=O)[C@H](CCCCN)NC(=O)[C@H](Cc1ccccc1)NC(=O)[C@@H](NC(=O)[C@H](CCCCN)NC(=O)[C@H](Cc1c[nH]c2ccccc12)NC(=O)[C@@H](N)CCCCN)C(C)C)[C@@H](C)CC)[C@@H](C)CC)C(=O)N[C@H](C(=O)N[C@@H](CCCCN)C(N)=O)C(C)C [KWKVFKKIEKMGRNIRNGIVK] has an MIC [20] of 12 µM (≈ 30.9 µg/mL), an MIC [21] of 12 µM (≈ 30.9 µg/mL) and an MIC [22] of 5 µM (≈ 12.9 µg/mL). The MIC [23] was 25 µM (≈ 64.3 µg/mL), the MIC [24] was 1.5 µM (≈ 3.86 µg/mL) and the MIC [25] was 1 µM (≈ 2.57 µg/mL). The MIC [26] was 6 µM (≈ 15.4 µg/mL) and the MIC [27] was over 100 µM.
Work on CC[C@H](C)[C@H](NC(=O)[C@H](CCCCN)NC(=O)[C@H](CCCCN)NC(=O)[C@H](C)NC(=O)[C@@H](NC(=O)[C@H](C)NC(=O)[C@H](CC(C)C)NC(=O)[C@H](CC(C)C)NC(=O)[C@H](C)NC(=O)[C@H](CCCCN)NC(=O)[C@H](CC(C)C)NC(=O)[C@H](CC(N)=O)NC(=O)[C@@H](N)CC(C)C)C(C)C)C(=O)N[C@@H](CC(C)C)C(N)=O [LNLKALLAVAKKIL] yielded an MIC [28] of 4 µM (≈ 6.03 µg/mL), an MIC [29] of 4 µM (≈ 6.03 µg/mL) and an MIC [30] of 4 µM (≈ 6.03 µg/mL). The MIC [31] was 8 µM (≈ 12.1 µg/mL), the MIC [32] was 8 µM (≈ 12.1 µg/mL) and the MIC [33] was 4 µM (≈ 6.03 µg/mL). The MIC [34] was 2 µM (≈ 3.01 µg/mL), the MIC [35] was 4 µM and 8 µM and the MIC [36] was 8 µM (≈ 12.1 µg/mL). The MIC [24] was 8 µM and 16 µM, the MIC [37] was 4 µM (≈ 6.03 µg/mL) and the MIC [38] was at least 32 µM. For the same compound, the MIC [39] was 4 µM (≈ 6.03 µg/mL), the MIC [40] was 4 µM and 8 µM and the MIC [41] was 4 µM (≈ 6.03 µg/mL). The MIC [42] was 4 µM (≈ 6.03 µg/mL).
In the case of CC[C@H](C)[C@H](NC(=O)[C@H](CC(C)C)NC(=O)[C@H](CCCCN)NC(=O)[C@H](CCCN=C(N)N)NC(=O)[C@H](Cc1ccccc1)NC(=O)[C@H](CC(C)C)NC(=O)[C@H](CO)NC(=O)[C@H](CC(C)C)NC(=O)[C@H](CC(C)C)NC(=O)[C@@H](N)CO)C(N)=O [SLLSLFRKLI], the MIC [43] is reported as 1.56 µM (≈ 1.85 µg/mL), the MIC [44] is reported as 1.56 µM (≈ 1.85 µg/mL) and the MIC [45] is reported as 3.12 µM (≈ 3.71 µg/mL).
